# Measured values as given in patent US6197225A, “Chromene compound” (Tokuyama Corporation, priority 1997, dated 2001).
# Columns and labels:
# [1] = Aging promotion testing: sunlight 30 min / fading one hour cycles, 10 days (durability, coloring degree); assay type: physicochemical
# Procedure: In order to promote the aging, furthermore, the following testing was conducted. That is, the obtained photochromic polymer was irradiated with sunlight for 30 minutes to develop color, and its color was permitted to fade for one hour in the light of a fluorescent lamp. This cycle was repeated three times a day for a total of 10 days.
# The photochromic properties before and after aged were evaluated by evaluating the color densities before and after aged. The initial color density (T0) and the color density (T30) ten days after the aging promotion testing were measured, and the durability was expressed as described below.
# Furthermore, the coloring degrees of before developing color were measured before and after aged by using a color difference meter (SM-4) manufactured by Suga Shikenki Co.
# 7 Coloring degree before being aged=YI(0).
# 8 Change in the coloring degree (ΔYI)=YI(10)-YI(0)
# YI(10): coloring degree after aged
# (§1) Photochromic polymers were prepared in the same manner as in Example 42 but using the chromene compounds obtained in Examples 2 to 41, and their maximum absorption wavelengths, color densities, fading rates, changes in the coloring degrees and durabilitys were measured.
# (§2) For the purpose of comparison, furthermore, the compounds represented by the following formulas (a), (b), (c), (d), (e) and (f) were measured for their maximum absorption wavelengths, color densities, fading rates, changes in the coloring degrees and durabilitys.
# (§3) The procedure was carried out in the same manner as in Example 42 but using 100 parts of AC1 and 133 parts of BC1, the sum of the amounts of AC1 and BC1 being 0.04% by weight. The obtained photochromic polymer was measured for its maximum absorption wavelength, initial color, color density, color-developing sensitivity, fading rate, durability and change in the coloring degree.
# (§4) The procedure was carried out in the same manner as in Example 83 but using the known chromene compounds shown in Table 6 instead of the chromene compound used in Example 83. […]
# The obtained polymer (2 mm thick) was caused to develop color outdoors, and tones of the developed color were observed by eyes 30 seconds and 15 minutes after it was brought to the outdoors, and uniformity in the step of developing color was evaluated. […] Furthermore, the aging promoting testing was conducted in the same manner as in Example 42 to find a coloring degree (YI(0)) before aged and a change in the coloring degree (ΔY).
# [2] = Photochromic properties of cast polymer (2 mm thick) under xenon lamp irradiation for 120 seconds; assay type: physicochemical
# Procedure: 0.04% by weight of the chromene compound obtained in Example 1 was added to 70 parts of 4G, 15 parts of 3G, 10 parts of GMA, 5 parts of HEMA and 1 part of perbutyl ND, and was mixed together to a sufficient degree. The mixture solution was poured into a mold constituted by a glass plate and a gasket of an ethylene/vinyl acetate copolymer, and was cast-polymerized. By using an air furnace, the polymerization was conducted in a manner that the temperature was gradually raised from 30° C. to 90° C. over a period of 18 hours, and was held at 90° C. for 2 hours. After the polymerization, the polymer was taken out from the glass mold.
# By using a xenon lamp, L-2480 (300 W) SHL-100, manufactured by Hamamatsu Photonics Co., the obtained polymer (2 mm thick) was irradiated with a beam of an intensity of 365 nm=2.4 mW/cm^2 and 245 nm=24 μW/cm^2 on the surface of the polymer for 120 seconds through an aero-mass filter (manufactured by Corning Co.) at 20° C.±1° C. to develop color and to measure the photochromic properties which were expressed in the following manner.
# 1 Maximum absorption wavelength (λmax): λmax of the polymer after it has developed color was found by using a spectrophotometer (instantaneous multi-channel photo-detector, MCPD1000) manufactured by Otsuka Denshi Kogyo Co.
# 2 Initial color ( ε(0)): Absorbency of the polymer in a non-irradiated state at a wavelength same as the maximum absorption wavelength of when it is irradiated with light.
# 3 Color density (-)=ε(120)-ε(0). ε(120): Absorbency of the polymer at a maximum absorption wavelength after it was irradiated for 120 seconds under the above-mentioned conditions.
# 4 Color-developing sensitivity (-/min.)=Saturated color density/xenon irradiation time.
# Rate of increase in the color density per a unit time until the color density is saturated.
# 5 Color fading rate [t1/2 (min.)]=time required until the absorbency of the polymer drops down to one-half of [ε(120)-ε(0)] after irradiated for 120 seconds.
# as §1, §2, §3, §4
# [3] = YI(10)-YI(0), single chromene compound in polymer, 10 days aging, Table 5
# [4] = single chromene compound in polymer, 10 days aging, Table 5
# [5] = single chromene compound 0.04% by weight in polymer, 20° C., Table 5
# [6] = single chromene compound 0.04% by weight in polymer, 120 seconds, 20° C., Table 5
# [7] = chromene composition, or other chromene C1-C4, 10 days aging, Table 6
SMILES,"Change in the coloring degree ΔYI [1, 3]","Light resistance (durability) [1, 4]","Maximum absorption wavelength λmax [2, 5]","Color density ε(120)-ε(0) [2, 6]","Change in the coloring degree ΔYI [1, 7]","Durability [1, 7]","λ max ([2]; chromene composition, or other chromene C1-C4, 0.04% by weight in polymer, Table 6)","Color density ε(120)-ε(0) ([2]; chromene composition, or other chromene C1-C4, 120 seconds, Table 6)","Initial color ε(0) ([2]; chromene composition, or other chromene C1-C4, non-irradiated, Table 6)","Fading rate t1/2 [2, 5]","Fading rate t1/2 ([2]; chromene composition, or other chromene C1-C4, Table 6)","Color-developing sensitivity ([2]; saturated color density/xenon irradiation time, Table 6)"
COc1ccc(C2(c3ccc(OC(F)(F)F)cc3)C=Cc3c(C)cc4ccccc4c3O2)cc1 (stereo not shown) [Compound 30],2.4,97%,490 nm,1.1,–,–,–,–,–,8.5 min,–,–
COc1ccc2c3c(c(C(C)Cc4ccccc4)cc2c1)C=CC(c1ccccc1)(c1cccn1C)O3 (stereo not shown) [Compound 8],2.0,92%,490 nm,0.7,–,–,–,–,–,2.2 min,–,–
CC(C)c1cc2ccccc2c2c1C=CC(c1ccccc1)(c1ccc(OC(F)(F)F)cc1)O2 (stereo not shown) [Compound 16],1.2,99%,470 nm,0.9,–,–,–,–,–,5.2 min,–,–
"C1=CC(c2ccccc2)(c2ccccc2)Oc2ccc3ccccc3c21 [Compound C4, 3,3-Diphenyl-3H-benzo(f)chromene, reference compound]",–,–,–,–,5.0,95%,432 nm,0.5,0.01,–,1.0 min,0.2 -/min.
COc1ccc(C2(c3ccc(OC)cc3)C=Cc3c(C)cc4c(OC)cccc4c3O2)cc1 [Compound 33],2.2,98%,520 nm,1.3,–,–,–,–,–,5.5 min,–,–
"Cc1cc2ccccc2c2c1C=CC(c1ccccc1)(c1ccccc1)O2 [c, reference compound]",2.4,96%,484 nm,1.3,–,–,–,–,–,20 min,–,–
CC(C)c1cc2ccccc2c2c1C=CC(c1ccccc1)(c1ccccc1)O2 [Compound 12],1.0,99%,476 nm,0.9,–,–,–,–,–,6.8 min,–,–

# Continued, in another order:
"Change in the coloring degree ΔYI [1, 3]","Light resistance (durability) [1, 4]","Maximum absorption wavelength λmax [2, 5]","Color density ε(120)-ε(0) [2, 6]","Change in the coloring degree ΔYI [1, 7]","Durability [1, 7]","λ max ([2]; chromene composition, or other chromene C1-C4, 0.04% by weight in polymer, Table 6)","Color density ε(120)-ε(0) ([2]; chromene composition, or other chromene C1-C4, 120 seconds, Table 6)","Initial color ε(0) ([2]; chromene composition, or other chromene C1-C4, non-irradiated, Table 6)",SMILES,"Fading rate t1/2 [2, 5]","Fading rate t1/2 ([2]; chromene composition, or other chromene C1-C4, Table 6)","Color-developing sensitivity ([2]; saturated color density/xenon irradiation time, Table 6)"
1.5,96%,443 nm,0.5,–,–,–,–,–,CC(C)(C)c1cc2ccccc2c2c1C=CC1(O2)C2CCCC1CCC2 (stereo not shown) [Compound 2],1.2 min,–,–
2.2,92%,454 nm,0.7,–,–,–,–,–,CC(C)c1cc2ccccc2c2c1C=CC1(O2)C2CC3CC(C2)CC1C3 (stereo not shown) [Compound 25],2.0 min,–,–
3.0,95%,506 nm,1.1,–,–,–,–,–,COc1ccc(C2(c3ccco3)C=Cc3c(C)cc4ccccc4c3O2)cc1F (stereo not shown) [Compound 31],7.0 min,–,–
5.0,95%,445 nm,0.6,–,–,–,–,–,CC(C)(C)c1cc2ccccc2c2c1C=CC1(O2)C2CC3CC(C2)CC1C3 (stereo not shown) [Compound 24],1.8 min,–,–
6.0,96%,446 nm,0.6,–,–,–,–,–,"CCOC(=O)c1c2c(c3ccccc3c1C)OC1(C=C2)C2CCCC1CCC2 (stereo not shown) [f, reference compound]",4.1 min,–,–
2.7,96%,512 nm,1.0,–,–,–,–,–,COc1ccc(C2(c3cccs3)C=Cc3c(C)cc4ccccc4c3O2)cc1 (stereo not shown) [Compound 32],6.5 min,–,–
